Laboratory results reported in patent US20130324412A1, “N-ALKOXYAMIDES OF 6-(SUBSTITUTED PHENYL)-4-AMINOPICOLINATES AND 2-(SUBSTITUTED PHENYL)-6-AMINO-4-PYRIMIDINECARBOXYLATES AND THEIR USE AS SELECTIVE HERBICIDES FOR CROPS” (DOW AGROSCIENCES LLC, priority 2009, published 2013).
Like-named read-outs stand apart in the source and are kept apart here.

Legend:
Format in all cases: in vivo
corn (Zea mays) = experiment: General postemergence herbicidal activity, corn; settings: post-emergence, 336 h, read-out: ZEAMX % Visual Injury; for plant injury at 140 g/ha: 140 g ai/ha; for plant injury at 280 g/ha: 280 g ai/ha; for plant injury at 35 g/ha: 35 g ai/ha
Experimental: (§1) Seeds or nutlets of the desired test plant species were planted in Sun Gro MetroMix® 360 planting mixture, which typically has a pH of 6.0 to 6.8 and an organic matter content of about 30 percent, in plastic pots with a surface area of 64 square centimeters (cm^2). When required to ensure good germination and healthy plants, a fungicide treatment and/or other chemical or physical treatment was applied. The plants were grown for 7-21 days (d) in a greenhouse with an approximate 15-hour (h) photoperiod which was maintained at about 23-29° C. during the day and 22-28° C. during the night. Nutrients and water were added on a regular basis and supplemental lighting was provided with overhead metal halide 1000-Watt lamps as necessary. The plants were employed for testing when they reached the first or second true leaf stage.
(§2) A weighed amount, determined by the highest rate to be tested, of each test compound was dissolved in 4 mL of a 97:3 volume per volume (v/v) mixture of acetone and dimethyl sulfoxide (DMSO) to obtain concentrated stock solutions. […] The concentrated stock solutions obtained were diluted with 20 mL of an aqueous mixture containing acetone, water, isopropyl alcohol, DMSO, Atplus 411F crop oil concentrate, and Triton X-155 surfactant in a 48.5:39:10:1.5:1.0:0.02 v/v ratio to obtain spray solutions containing the highest application rates. Additional application rates were obtained by serial dilution of 12 mL of the high rate solution into a solution containing 2 mL of 97:3 v/v mixture of acetone and DMSO and 10 mL of an aqueous mixture containing acetone, water, isopropyl alcohol, DMSO, Atplus 411F crop oil concentrate, and Triton X-155 surfactant in a 48.5:39:10:1.5:1.0:0.02 v/v ratio to obtain ½×, ¼×, ⅛× and 1/16× rates of the high rate. Compound requirements are based upon a 12 mL application volume at a rate of 187 liters per hectare (L/ha). Formulated compounds were applied to the plant material with an overhead Mandel track sprayer equipped with 8002E nozzles calibrated to deliver 187 L/ha over an application area of 0.503 square meters (m^2) at a spray height of 18 inches (43 cm) above the average plant canopy height. Control plants were sprayed in the same manner with the solvent blank.
(§3) The treated plants and control plants were placed in a greenhouse as described above and watered by sub-irrigation to prevent wash-off of the test compounds. After 14 d, the condition of the test plants as compared with that of the untreated plants was determined visually and scored on a scale of 0 to 100 percent where 0 corresponds to no injury and 100 corresponds to complete kill.

[1] = test system: wild buckwheat (Polygonum convululus); experiment: General postemergence herbicidal activity, wild buckwheat; settings: post-emergence, 336 h, read-out: POLCO % Visual Injury; for pest or weed control at 140 g/ha: 140 g ai/ha; for pest or weed control at 280 g/ha: 280 g ai/ha; for pest or weed control at 35 g/ha: 35 g ai/ha
Experimental: as §1, §2, §3

[2] = test system: velvetleaf (Abutilon theophrasti); experiment: General postemergence herbicidal activity, velvetleaf; settings: post-emergence, 336 h, read-out: ABUTH % Visual Injury; for pest or weed control at 140 g/ha: 140 g ai/ha; for pest or weed control at 280 g/ha: 280 g ai/ha; for pest or weed control at 35 g/ha: 35 g ai/ha
Experimental: as §1, §2, §3

[3] = test system: lambsquarters (Chenopodium album); experiment: General postemergence herbicidal activity, lambsquarters; settings: post-emergence, 336 h, read-out: CHEAL % Visual Injury; for pest or weed control at 140 g/ha: 140 g ai/ha; for pest or weed control at 280 g/ha: 280 g ai/ha; for pest or weed control at 35 g/ha: 35 g ai/ha
Experimental: as §1, §2, §3

[4] = postemergence, after 14 d, 0 = no injury, 100 = complete kill
[5] = 70 g ai/ha, postemergence, after 14 d, 0 = no injury, 100 = complete kill
[6] = 17.5 g ai/ha, postemergence, after 14 d, 0 = no injury, 100 = complete kill

COc1c(Cl)ccc(-c2cc(N)c(Cl)c(C(=O)N3CCCO3)n2)c1F [Compound 40, (4-Amino-3-chloro-6-(4-chloro-2-fluoro-3-methoxyphenyl)pyridin-2-yl)(isoxazolidin-2-yl)methanone]
plant injury at 140 g/ha (corn (Zea mays); [4]): 20%
pest or weed control at 140 g/ha [1, 4]: 100%
pest or weed control at 140 g/ha [2, 4]: 95%
pest or weed control at 140 g/ha [3, 4]: 100%

COc1c(Cl)ccc(-c2cc(N)c(Cl)c(C(=O)NOCc3ccco3)n2)c1F [Compound 42, 4-Amino-3-chloro-6-(4-chloro-2-fluoro-3-methoxyphenyl)-N-(furan-2-yl-methoxy)picolinamide]
plant injury at 70 g/ha (corn (Zea mays); [5]): 15%
pest or weed control at 70 g/ha [1, 5]: 100%
pest or weed control at 70 g/ha [2, 5]: 100%
pest or weed control at 70 g/ha [3, 5]: 100%

COc1c(Cl)ccc(-c2cc(N)c(Cl)c(C(=O)NOCc3ccoc3)n2)c1F [Compound 43, 4-Amino-3-chloro-6-(4-chloro-2-fluoro-3-methoxyphenyl)-N-(furan-3-yl-methoxy)picolinamide]
plant injury at 140 g/ha (corn (Zea mays); [4]): 30%
pest or weed control at 140 g/ha [1, 4]: 100%
pest or weed control at 140 g/ha [2, 4]: 95%
pest or weed control at 140 g/ha [3, 4]: 100%

COc1c(Cl)ccc(-c2cc(N)c(Cl)c(C(=O)NOCC3=CCCCC3)n2)c1F [Compound 44, 4-Amino-3-chloro-6-(4-chloro-2-fluoro-3-methoxyphenyl)-N-(cyclohexenyl-methoxy)picolinamide]
plant injury at 140 g/ha (corn (Zea mays); [4]): 5%
pest or weed control at 140 g/ha [1, 4]: 100%
pest or weed control at 140 g/ha [2, 4]: 98%
pest or weed control at 140 g/ha [3, 4]: 98%

CC/C=C/CONC(=O)c1nc(-c2ccc(Cl)c(OC)c2F)cc(N)c1Cl [Compound 45, (E)-4-Amino-3-chloro-6-(4-chloro-2-fluoro-3-methoxyphenyl)-N-(2-pentenyl-oxy)picolinamide]
plant injury at 140 g/ha (corn (Zea mays); [4]): 30%
pest or weed control at 140 g/ha [1, 4]: 100%
pest or weed control at 140 g/ha [2, 4]: 100%
pest or weed control at 140 g/ha [3, 4]: 100%

CCCCONC(=O)c1nc(-c2ccc(Cl)c(OC)c2F)cc(N)c1Cl [Compound 46, 4-Amino-N-butoxy-3-chloro-6-(4-chloro-2-fluoro-3-methoxyphenyl)picolinamide]
plant injury at 70 g/ha (corn (Zea mays); [5]): 25%
pest or weed control at 70 g/ha [1, 5]: 100%
pest or weed control at 70 g/ha [2, 5]: 100%
pest or weed control at 70 g/ha [3, 5]: 100%

COCCONC(=O)c1nc(-c2ccc(Cl)c(OC)c2F)cc(N)c1Cl [Compound 49, 4-Amino-3-chloro-6-(4-chloro-2-fluoro-3-methoxyphenyl)-N-(2-methoxy-ethoxy)picolinamide]
plant injury at 280 g/ha (corn (Zea mays); [4]): 0%
pest or weed control at 280 g/ha [1, 4]: 100%
pest or weed control at 280 g/ha [2, 4]: 100%
pest or weed control at 280 g/ha [3, 4]: 100%

COc1c(Cl)ccc(-c2cc(N)c(Cl)c(C(=O)NOCCC#N)n2)c1F [Compound 50, 4-Amino-3-chloro-6-(4-chloro-2-fluoro-3-methoxyphenyl)-N-(2-cyanoethoxy)picolinamide]
plant injury at 280 g/ha (corn (Zea mays); [4]): 10%
pest or weed control at 280 g/ha [1, 4]: 90%
pest or weed control at 280 g/ha [2, 4]: 100%
pest or weed control at 280 g/ha [3, 4]: 100%

COCCOCONC(=O)c1nc(-c2ccc(Cl)c(OC)c2F)cc(N)c1Cl [Compound 51, 4-Amino-3-chloro-6-(4-chloro-2-fluoro-3-methoxyphenyl)-N-((2-methoxyethoxy)-methoxy)picolinamide]
plant injury at 35 g/ha (corn (Zea mays); [4]): 35%
pest or weed control at 35 g/ha [1, 4]: 100%
pest or weed control at 35 g/ha [2, 4]: 100%
pest or weed control at 35 g/ha [3, 4]: 100%

COc1c(Cl)ccc(-c2cc(N)c(Cl)c(C(=O)N3CC=CCO3)n2)c1F [Compound 52, (4-Amino-3-chloro-6-(4-chloro-2-fluoro-3-methoxyphenyl)pyridin-2-yl)(3,6-dihydro-2H-1,2-oxazin-2-yl)methanone]
plant injury at 35 g/ha (corn (Zea mays); [4]): 20%
pest or weed control at 35 g/ha [1, 4]: 100%
pest or weed control at 35 g/ha [2, 4]: 100%
pest or weed control at 35 g/ha [3, 4]: 90%

COc1c(Cl)ccc(-c2cc(N)c(Cl)c(C(=O)NO)n2)c1F [Compound 57, 4-amino-3-chloro-6-(4-chloro-2-fluoro-3-methoxyphenyl)-N-hydroxypicolinamide]
plant injury at 17.5 g/ha (corn (Zea mays); [6]): 0%
pest or weed control at 17.5 g/ha [1, 6]: 95%
pest or weed control at 17.5 g/ha [2, 6]: 90%
pest or weed control at 17.5 g/ha [3, 6]: 95%

COc1c(N)nc(-c2ccc(Cl)c(F)c2F)nc1C(=O)NO [Compound 58, 6-Amino-2-(4-chloro-2,3-difluorophenyl)-N-hydroxy-5-methoxypyrimidine-4-carboxamide]
plant injury at 280 g/ha (corn (Zea mays); [4]): 0%
pest or weed control at 280 g/ha [1, 4]: 100%
pest or weed control at 280 g/ha [2, 4]: 90%
pest or weed control at 280 g/ha [3, 4]: 100%

C=CCONC(=O)c1nc(-c2ccc(Cl)c(OC)c2F)cc(N)c1Cl [Compound 59, sodium 2-propenyloxy(4-amino-3-chloro-6-(4-chloro-2-fluoro-3-methoxyphenyl)picolinoyl)amide]
plant injury at 70 g/ha (corn (Zea mays)): 10%
pest or weed control at 70 g/ha [1]: 85%
pest or weed control at 70 g/ha [2]: 100%
pest or weed control at 70 g/ha [3]: 95%
